The results in this text go back to ChEMBL document CHEMBL1145548, “Selective plasma protein binding of antimalarial drugs to alpha1-acid glycoprotein” (Bioorg Med Chem, 2008).

For data set [1], the target named is T1, Albumin (Homo sapiens, UniProt P02768). In words: Binding affinity to human serum albumin on sepharose column by affinity chromatography. It is filed as ADME. As to conditions: isolated protein.
The target of data set [2] is T1, Albumin. In words: Binding affinity to human serum albumin by circular dichroism and UV/VIS spectroscopic method. As to conditions: isolated protein. It counts as ADME. (Circular dichroism is widely used to follow secondary structure.)
For data set [3], the target named is Alpha-1-acid glycoprotein 1 (Homo sapiens, UniProt P02763). As to the kind of experiment: Binding affinity to human ORM1 at 37 degC by induced circular dichroism method.
The species entered for data set [4] is Homo sapiens. In words: Displacement of quinaldine red from human AAG by fluorescence method.
Data set [5] is filed under the species Homo sapiens. In words: Binding affinity to human AAG at 37 degC by induced circular dichroism method.
Data set [6] has as its target Alpha-1-acid glycoprotein 2 (Homo sapiens, UniProt P19652). In words: Binding affinity to human ORM2 at 37 degC by induced circular dichroism method.
The target in data set [7] is T1, Albumin. As to the kind of experiment: Binding affinity to human serum albumin by fluorescence emission spectra. It counts as ADME. As to conditions: isolated protein.
For data set [8], the species on record is Homo sapiens. As to the kind of experiment: Binding affinity to human AAG by fluorescence emission spectra.
Data set [9] is filed under the species Homo sapiens. In words: Binding affinity to human AAG at 23 degC by induced circular dichroism method.

T1 sequence (P02768 whole entry): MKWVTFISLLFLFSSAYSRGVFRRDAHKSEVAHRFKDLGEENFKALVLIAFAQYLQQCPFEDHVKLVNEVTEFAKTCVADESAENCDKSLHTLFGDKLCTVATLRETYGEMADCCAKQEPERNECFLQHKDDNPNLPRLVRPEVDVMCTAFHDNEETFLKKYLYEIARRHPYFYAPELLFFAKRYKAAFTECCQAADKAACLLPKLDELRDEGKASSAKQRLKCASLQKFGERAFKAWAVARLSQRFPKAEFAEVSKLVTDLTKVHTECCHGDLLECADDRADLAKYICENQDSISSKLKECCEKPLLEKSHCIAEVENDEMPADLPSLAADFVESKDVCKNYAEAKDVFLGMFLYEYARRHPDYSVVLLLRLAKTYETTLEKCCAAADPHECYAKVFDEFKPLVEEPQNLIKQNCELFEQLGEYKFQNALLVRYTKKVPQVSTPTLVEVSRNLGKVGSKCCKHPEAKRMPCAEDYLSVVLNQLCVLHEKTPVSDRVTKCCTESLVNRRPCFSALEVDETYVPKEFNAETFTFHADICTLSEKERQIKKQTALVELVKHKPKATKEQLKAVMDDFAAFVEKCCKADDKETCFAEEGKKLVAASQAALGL
Chain of Alpha-1-acid glycoprotein 1 (P02763 whole entry): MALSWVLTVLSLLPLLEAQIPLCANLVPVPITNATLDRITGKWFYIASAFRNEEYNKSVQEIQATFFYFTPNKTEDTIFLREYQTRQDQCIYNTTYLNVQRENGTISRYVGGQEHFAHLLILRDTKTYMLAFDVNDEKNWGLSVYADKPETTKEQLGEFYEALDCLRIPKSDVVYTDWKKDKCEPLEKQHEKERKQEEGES
Chain of Alpha-1-acid glycoprotein 2 (P19652 whole entry): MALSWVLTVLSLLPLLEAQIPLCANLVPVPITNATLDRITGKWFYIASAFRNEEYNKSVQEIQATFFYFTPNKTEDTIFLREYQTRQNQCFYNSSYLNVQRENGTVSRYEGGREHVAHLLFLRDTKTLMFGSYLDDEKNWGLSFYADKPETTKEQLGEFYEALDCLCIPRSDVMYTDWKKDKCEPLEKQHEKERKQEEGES

As for `CCN(CC)Cc1cc(Nc2ccnc3cc(Cl)ccc23)ccc1O.Cl`, the Ka in data set [1] is 2 10^4/M; in data set [2] it was 6200 M⁻¹. Take `CC(=O)O[C@H]1N=C(c2ccccc2Cl)c2cc(Cl)ccc2NC1=O`: in [1], the Ka is reported as 2 10^4/M.

Take `CC(=O)O[C@@H]1N=C(c2ccccc2)c2cc(Cl)ccc2NC1=O`: the Ka in data set [1] was 8 10^4/M. For `CCN(CC)Cc1cc(Nc2ccnc3cc(Cl)ccc23)ccc1O.Cl.Cl.Cl`, in data set [3], the Ka is listed as 5.8 10^4/M. With `CC(=O)O[C@@H]1N=C(c2ccccc2Cl)c2cc(Cl)ccc2NC1=O`, the Ka in data set [1] is reported as 4 10^4/M. As to `CC(=O)O[C@H]1N=C(c2ccccc2)c2cc(Cl)ccc2NC1=O`, the Ka in [1] is 1 10^4/M. For `CC#C[C@]1(O)CC[C@H]2[C@@H]3CCC4=CC(=O)CCC4=C3[C@@H](c3ccc(N(C)C)cc3)C[C@@]21C`, the Ka in data set [4] was 4 10^6/M. With `CCN(CC)CCCC(C)Nc1c2ccc(Cl)cc2nc2ccc(OC)cc12` (stereo not given), the Ka in data set [5] was 2.3 10^5/M. In the case of `CCN(CC)Cc1cc(Nc2ccnc3cc(Cl)ccc23)ccc1O`, the Ka is 4.8 10^4/M in data set [5] and 1.1 10^5/M in [4]. On to `CN(C)CCCN1c2ccccc2Sc2ccc(Cl)cc21`, for which the Ka in data set [4] is 8.4 10^5/M.

For `COc1cc(NC(C)CCCN)c2ncccc2c1` (stereo not given), the Ka in [5] is 4.1 10^5/M; in data set [4] it was 4.2 10^5/M. `CC(C)NCC(O)COc1cccc2ccccc12` (racemic): in data set [4], the Ka is 1.5 10^5/M.

For `CCN(CC)CCCC(C)Nc1ccnc2cc(Cl)ccc12` (stereo not given) [CHLOROQUINE], the Ka in data set [1] was 2 10^3/M; in data set [4], 0.3 10^5/M. Turning to `OC(c1cc(C(F)(F)F)nc2c(C(F)(F)F)cccc12)C1CCCCN1` (stereo not given) [MEFLOQUINE], the Ka in data set [1] was 8 10^4/M; in [4], 8.7 10^5/M.

Turning to `COc1cc(NC(C)CCCN)c2ncccc2c1.O=P(O)(O)O.O=P(O)(O)O` (stereo not given) [PRIMAQUINE PHOSPHATE], the Ka in data set [3] is reported as 8 10^5/M. As to `COc1cc(NC(C)CCCN)c2ncccc2c1` (stereo not given) [PRIMAQUINE], the Ka in data set [1] is listed as 7 10^3/M. Consider `CCN(CC)CCCC(C)Nc1c2ccc(Cl)cc2nc2ccc(OC)cc12.Cl.Cl` (stereo not given) [QUINACRINE DIHYDROCHLORIDE], for which the Ka in data set [6] is 3.7 10^5/M. Take `CCN(CC)CCCC(C)Nc1c2ccc(Cl)cc2nc2ccc(OC)cc12` (stereo not given) [QUINACRINE]: the Ka in data set [1] was 7 10^3/M.

Turning to `COc1cc(C)c2c(Oc3cccc(C(F)(F)F)c3)c(OC)cc(NC(C)CCCN)c2n1` (stereo not given) [TAFENOQUINE], the Ka was 3 10^5/M in data set [7]; 3 10^5/M in [1]; 1.6 10^6/M in data set [8]; 3.3 10^5/M in data set [5]; 1.8 10^6/M in data set [4]; 24000 M⁻¹ in data set [2]. Besides, in data set [9], the Ka was 1.1 10^6/M.
